# Legend:
# Assay in all cases: relative viability (nuclei count vs DMSO), 5 days (fraction); higher = more cells survive
# [1] = test system: SW 1573
# Procedure, shortened: (§1)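 Relative viability is defined as nuclei in treated wells over nuclei in vehicle wells. Duplicate plates were run and medians reported. Lung cancer cell lines in 1536-well plates were dosed by pin tool one day after seeding, with one drug or with a fixed anchor-drug dose plus five library-drug doses (not always all listed) in √10 steps, and nuclei were counted after 5 days.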
# [2] = test system: NCI-H3122
# Procedure, shortened: as §1
# [3] = test system: HCC-827
# Procedure, shortened: as §1
# [4] = test system: NCI-H2085
# Procedure, shortened: as §1
# [5] = test system: LK-2
# Procedure, shortened: as §1
# [6] = test system: RERF-LC-KJ
# Procedure, shortened: as §1
# [7] = test system: LXF-289
# Procedure, shortened: as §1
# [8] = test system: NCI-H23
# Procedure, shortened: as §1
# [9] = test system: LOU-NH91
# Procedure, shortened: as §1
# [10] = test system: NCI-H1975
# Procedure, shortened: as §1
# [11] = test system: NCI-H1666
# Procedure, shortened: as §1
# [12] = test system: EMC-BAC-2
# Procedure, shortened: as §1
# [13] = test system: EPLC-272H
# Procedure, shortened: as §1
# [14] = test system: HCC-78
# Procedure, shortened: as §1
# [15] = test system: NCI-H322M
# Procedure, shortened: as §1
# [16] = test system: NCI-H2126
# Procedure, shortened: as §1
# [17] = test system: NCI-H1563
# Procedure, shortened: as §1
# [18] = test system: LU99A
# Procedure, shortened: as §1
# [19] = test system: SK-LU-1
# Procedure, shortened: as §1
# [20] = test system: NCI-H2405
# Procedure, shortened: as §1
structure (smiles),measurement,setting,value
NC(=O)Nc1cc(-c2cccc(F)c2)sc1C(=O)N[C@H]1CCCNC1 [AZD7762] + CS(=O)(=O)CCNCc1ccc(-c2ccc3ncnc(Nc4ccc(OCc5cccc(F)c5)c(Cl)c4)c3c2)o1 [Lapatinib] (partner 2 µM),relative viability,[1]; first compound 0.01 µM,1.29
same,relative viability,[1]; first compound 0.03162 µM,1.23
same,relative viability,[1]; first compound 0.1 µM,1.16
same,relative viability,[1]; first compound 0.3162 µM,1.24
same,relative viability,[1]; first compound 1 µM,1.12
same,relative viability,[2]; first compound 0.01 µM,0.978
same,relative viability,[2]; first compound 0.03162 µM,1.06
same,relative viability,[2]; first compound 0.1 µM,1.03
same,relative viability,[2]; first compound 0.3162 µM,0.907
same,relative viability,[2]; first compound 1 µM,1.09
same,relative viability,[3]; first compound 0.01 µM,0.202
same,relative viability,[3]; first compound 0.03162 µM,0.177
same,relative viability,[3]; first compound 0.1 µM,0.189
same,relative viability,[3]; first compound 0.3162 µM,0.178
same,relative viability,[3]; first compound 1 µM,0.197
same,relative viability,[4]; first compound 0.01 µM,0.804
same,relative viability,[4]; first compound 0.03162 µM,0.878
same,relative viability,[4]; first compound 0.1 µM,0.873
same,relative viability,[4]; first compound 0.3162 µM,0.78
same,relative viability,[4]; first compound 1 µM,0.6
same,relative viability,[5]; first compound 0.01 µM,1.02
same,relative viability,[5]; first compound 0.03162 µM,1.03
same,relative viability,[5]; first compound 0.1 µM,0.759
same,relative viability,[5]; first compound 0.3162 µM,0.828
same,relative viability,[5]; first compound 1 µM,0.573
same,relative viability,[6]; first compound 0.01 µM,0.865
same,relative viability,[6]; first compound 0.03162 µM,0.894
same,relative viability,[6]; first compound 0.1 µM,0.849
same,relative viability,[6]; first compound 0.3162 µM,0.819
same,relative viability,[6]; first compound 1 µM,0.956
same,relative viability,[7]; first compound 0.01 µM,0.906
same,relative viability,[7]; first compound 0.03162 µM,0.909
same,relative viability,[7]; first compound 0.1 µM,0.973
same,relative viability,[7]; first compound 0.3162 µM,0.912
same,relative viability,[7]; first compound 1 µM,0.983
same,relative viability,[8]; first compound 0.01 µM,1.08
same,relative viability,[8]; first compound 0.03162 µM,1.04
same,relative viability,[8]; first compound 0.1 µM,1.18
same,relative viability,[8]; first compound 0.3162 µM,0.508
same,relative viability,[8]; first compound 1 µM,0.3
same,relative viability,[9]; first compound 0.01 µM,0.792
same,relative viability,[9]; first compound 0.03162 µM,0.791
same,relative viability,[9]; first compound 0.1 µM,0.753
same,relative viability,[9]; first compound 0.3162 µM,0.572
same,relative viability,[9]; first compound 1 µM,0.639
same,relative viability,[10]; first compound 0.01 µM,0.89
same,relative viability,[10]; first compound 0.03162 µM,0.831
same,relative viability,[10]; first compound 0.1 µM,0.776
same,relative viability,[10]; first compound 0.3162 µM,0.639
same,relative viability,[10]; first compound 1 µM,0.398
same,relative viability,[11]; first compound 0.01 µM,0.671
same,relative viability,[11]; first compound 0.03162 µM,0.821
same,relative viability,[11]; first compound 0.1 µM,0.73
same,relative viability,[11]; first compound 0.3162 µM,0.629
same,relative viability,[11]; first compound 1 µM,0.708
same,relative viability,[12]; first compound 0.01 µM,0.908
same,relative viability,[12]; first compound 0.03162 µM,0.929
same,relative viability,[12]; first compound 0.1 µM,0.919
same,relative viability,[12]; first compound 0.3162 µM,0.91
same,relative viability,[12]; first compound 1 µM,0.894
same,relative viability,[13]; first compound 0.01 µM,0.875
same,relative viability,[13]; first compound 0.03162 µM,1.19
same,relative viability,[13]; first compound 0.1 µM,0.846
same,relative viability,[13]; first compound 0.3162 µM,0.967
same,relative viability,[13]; first compound 1 µM,0.912
same,relative viability,[14]; first compound 0.01 µM,0.863
same,relative viability,[14]; first compound 0.03162 µM,0.791
same,relative viability,[14]; first compound 0.1 µM,0.842
same,relative viability,[14]; first compound 0.3162 µM,0.653
same,relative viability,[14]; first compound 1 µM,0.304
same,relative viability,[15]; first compound 0.01 µM,0.627
same,relative viability,[15]; first compound 0.03162 µM,0.675
same,relative viability,[15]; first compound 0.1 µM,0.532
same,relative viability,[15]; first compound 0.3162 µM,0.535
same,relative viability,[15]; first compound 1 µM,0.456
same,relative viability,[16]; first compound 0.01 µM,0.774
same,relative viability,[16]; first compound 0.03162 µM,0.82
same,relative viability,[16]; first compound 0.1 µM,0.834
same,relative viability,[16]; first compound 0.3162 µM,0.803
same,relative viability,[16]; first compound 1 µM,0.821
same,relative viability,[17]; first compound 0.01 µM,0.868
same,relative viability,[17]; first compound 0.03162 µM,1.04
same,relative viability,[17]; first compound 0.1 µM,1.04
same,relative viability,[17]; first compound 0.3162 µM,0.982
same,relative viability,[17]; first compound 1 µM,0.904
same,relative viability,[18]; first compound 0.01 µM,0.954
same,relative viability,[18]; first compound 0.03162 µM,1.1
same,relative viability,[18]; first compound 0.1 µM,0.952
same,relative viability,[18]; first compound 0.3162 µM,0.789
same,relative viability,[18]; first compound 1 µM,0.416
same,relative viability,[19]; first compound 0.01 µM,0.943
same,relative viability,[19]; first compound 0.03162 µM,0.714
same,relative viability,[19]; first compound 0.1 µM,0.456
same,relative viability,[19]; first compound 0.3162 µM,0.276
same,relative viability,[19]; first compound 1 µM,0.217
same,relative viability,[20]; first compound 0.01 µM,1.11
same,relative viability,[20]; first compound 0.03162 µM,1.41
same,relative viability,[20]; first compound 0.1 µM,0.998
same,relative viability,[20]; first compound 0.3162 µM,1.01
same,relative viability,[20]; first compound 1 µM,0.422
